Source: PubChem BioAssay (NCI)
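Following 48 hours of exposure in 96-well plates, responses at five concentrations were used to interpolate endpoints linearly. At the TGI there is no net growth.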

Key:
Experiment in all cases: NCI anticancer screen, dose series, 48 h
786-0 renal = tested on: 786-0 renal
A498 renal = tested on: A498 renal
A549 NSCLC = tested on: A549 NSCLC
ACHN renal = tested on: ACHN renal
CCRF-CEM leukemia = tested on: CCRF-CEM leukemia
HCC-2998 colon = tested on: HCC-2998 colon
HOP-62 NSCLC = tested on: HOP-62 NSCLC
HT29 colon = tested on: HT29 colon
IGROV1 ovarian = tested on: IGROV1 ovarian
K-562 leukemia = tested on: K-562 leukemia
KM12 colon = tested on: KM12 colon
LOX IMVI melanoma = tested on: LOX IMVI melanoma
MALME-3M melanoma = tested on: MALME-3M melanoma
NCI-H522 lung = tested on: NCI-H522 lung
TK-10 renal = tested on: TK-10 renal
UACC-257 melanoma = tested on: UACC-257 melanoma
HL-60(TB) leukemia = tested on: HL-60(TB) leukemia
MDA-MB-231 breast = tested on: MDA-MB-231 breast
MDA-N = tested on: MDA-N

| Structure (SMILES) | TGI (786-0 renal) | TGI (A498 renal) | TGI (A549 NSCLC) | TGI (ACHN renal) | TGI (CCRF-CEM leukemia) | TGI (HCC-2998 colon) | TGI (HOP-62 NSCLC) | TGI (HT29 colon) | TGI (IGROV1 ovarian) | TGI (K-562 leukemia) | TGI (KM12 colon) | TGI (LOX IMVI melanoma) | TGI (MALME-3M melanoma) | TGI (NCI-H522 lung) | TGI (TK-10 renal) | TGI (UACC-257 melanoma) | TGI (HL-60(TB) leukemia) | TGI (MDA-MB-231 breast) | TGI (MDA-N) |
| --- | --- | --- | --- | --- | --- | --- | --- | --- | --- | --- | --- | --- | --- | --- | --- | --- | --- | --- | --- |
| CC(=O)NC(CCCN)C(=O)NCc1ccccc1 (configuration not stated) | > 100 µM | > 100 µM | > 100 µM | > 100 µM | > 100 µM | > 100 µM | > 100 µM | > 100 µM | > 100 µM | > 100 µM | > 100 µM | > 100 µM | > 100 µM | > 100 µM | > 100 µM | > 100 µM | – | – | – |
| CC1=CC(=O)NCCN1C | > 100 µM | > 100 µM | > 100 µM | > 100 µM | > 100 µM | > 100 µM | > 100 µM | > 100 µM | > 100 µM | > 100 µM | > 100 µM | > 100 µM | > 100 µM | > 100 µM | > 100 µM | > 100 µM | > 100 µM | – | – |
| O=C(CC(=O)N1N=C(c2ccccc2)C(N=Nc2ccc(Cl)cc2)C1=O)Nc1ccccc1Cl (configuration not stated) | 26 µM | – | > 100 µM | 48.8 µM | – | > 100 µM | 40.6 µM | > 100 µM | > 100 µM | > 100 µM | > 100 µM | > 100 µM | – | > 100 µM | 38.1 µM | – | > 100 µM | – | – |
| N#CCCN(c1ccc(/C=C2\N=C(c3ccc(Cl)cc3)OC2=O)cc1)S(=O)(=O)c1ccccc1 | > 100 µM | > 100 µM | > 100 µM | > 100 µM | – | > 100 µM | > 100 µM | > 100 µM | > 100 µM | > 100 µM | > 100 µM | > 100 µM | – | > 100 µM | > 100 µM | > 100 µM | > 100 µM | – | – |
| CCOC(=O)[C@H]1Nc2ccc(C)cc2C2c3ccccc3CC21 (some centres not stated) | > 100 µM | > 100 µM | > 100 µM | > 100 µM | – | > 100 µM | > 100 µM | > 100 µM | > 100 µM | > 100 µM | > 100 µM | > 100 µM | > 100 µM | > 100 µM | > 100 µM | > 100 µM | – | – | – |
| CCCCCCCCCCCCCCCCCc1cccc(OCOCCOC)c1CO | > 100 µM | > 100 µM | > 100 µM | > 100 µM | > 100 µM | > 100 µM | > 100 µM | > 100 µM | > 100 µM | > 100 µM | > 100 µM | – | > 100 µM | > 100 µM | > 100 µM | > 100 µM | > 100 µM | > 100 µM | – |
| CCOC(=O)c1c(SC(=O)/C=C/c2ccccc2)n(-c2ccccc2)c(=S)n(-c2ccccc2)c1=O | > 100 µM | > 100 µM | > 100 µM | > 100 µM | > 100 µM | > 100 µM | > 100 µM | > 100 µM | > 100 µM | > 100 µM | > 100 µM | > 100 µM | > 100 µM | > 100 µM | > 100 µM | > 100 µM | – | > 100 µM | – |
| CC1=CC(=O)NP(=O)(Oc2ccc(C)cc2)N1 (configuration not stated) | > 100 µM | > 100 µM | – | > 100 µM | > 100 µM | – | > 100 µM | > 100 µM | > 100 µM | > 100 µM | > 100 µM | > 100 µM | > 100 µM | > 100 µM | > 100 µM | > 100 µM | > 100 µM | – | – |
| CC(C(=O)N1c2ccccc2Sc2ccccc21)N1c2ccccc2Sc2ccccc21 (configuration not stated) | > 100 µM | > 100 µM | > 100 µM | > 100 µM | > 100 µM | – | > 100 µM | > 100 µM | > 100 µM | > 100 µM | > 100 µM | > 100 µM | > 100 µM | – | > 100 µM | > 100 µM | > 100 µM | > 100 µM | > 100 µM |
| COc1cccc(C2c3cc4c(cc3OC(N3CCCC3)C2C)OCO4)c1 (configuration not stated) | 33.7 µM | – | > 100 µM | 83.8 µM | 17.1 µM | 24.9 µM | 19.8 µM | 18.4 µM | 38.7 µM | 5.72 µM | 33 µM | 30.5 µM | – | 22.5 µM | > 100 µM | 52.3 µM | – | – | – |
| COc1cc(C2c3cc4c(cc3[C@@H](Nc3ccccc3)C3CO[C@@H](OC)[C@H]23)OCO4)cc(OC)c1O (some centres not stated) | 15.4 µM | – | 12.1 µM | 10.6 µM | 11.3 µM | > 25 µM | > 25 µM | 10.7 µM | > 25 µM | > 25 µM | > 25 µM | – | – | > 25 µM | > 25 µM | > 25 µM | 8.24 µM | – | – |
| O=C1c2ccccc2S[C@@H](O)[C@@H]2CCCN12 | > 100 µM | – | > 100 µM | > 100 µM | > 100 µM | > 100 µM | > 100 µM | – | 87.9 µM | > 100 µM | > 100 µM | > 100 µM | > 100 µM | > 100 µM | > 100 µM | > 100 µM | > 100 µM | – | – |
| Cc1ccccc1Nc1cn(COCc2ccccc2)c(=O)[nH]c1=O | > 100 µM | > 100 µM | > 100 µM | > 100 µM | > 100 µM | > 100 µM | > 100 µM | > 100 µM | > 100 µM | > 100 µM | > 100 µM | > 100 µM | – | > 100 µM | – | > 100 µM | > 100 µM | – | > 100 µM |
| CCOC(=O)CC(NC(=O)c1nc[nH]c1[N+](=O)[O-])C(=O)OCC (configuration not stated) | > 100 µM | > 100 µM | > 100 µM | > 100 µM | > 100 µM | > 100 µM | > 100 µM | > 100 µM | > 100 µM | > 100 µM | > 100 µM | > 100 µM | > 100 µM | > 100 µM | 94.1 µM | > 100 µM | – | – | – |
| Oc1cc(O)c2c(c1)O[C@H](c1cc(O)c(O)c(O)c1)[C@H](O)C2 | 33.5 µM | > 100 µM | 76.7 µM | 48.9 µM | 42.4 µM | – | 37.3 µM | – | 41.9 µM | 48.4 µM | – | 77.6 µM | > 100 µM | 38.1 µM | – | > 100 µM | 42.2 µM | 33.6 µM | 40.9 µM |
